Measurements from patent US11207360B2, “Composition for the treatment of dysbiosis of the intestinal microbiota” (NUTRAVIS S.R.L., priority 2017, dated 2021).

Legend:
Assay type in all cases: cell-based
Conditions in all cases: liposomes containing 1 mg beta-carotene, 24 hours at 37° C.
[1] = test system: Bacillus coagulans, Lactobacillus Plantarum; experiment: Abscisic acid production by culture of Bacillus coagulans and Lactobacillus Plantarum incubated with liposomes, ABA ELISA
Procedure: (§1) Lyophilized probiotics were grown separately in LB medium in shake-flasks equipped with vented cap at 37° C. for 24 hours. After growth, each probiotic suspension was diluted with LB medium to reach approximately 0.1 O.D. at 600 nm. 3.5 ml of each diluted suspension was added with 500 μl of:
(§2) ii) liposomes containing 1 mg carotene,
(§3) iii) liposomes containing 0.1 mg xanthophyll,
(§4) iv) both liposomes containing carotene and xanthophyll, and
(§5) incubated with shaking at 350 rpm at 37° C. for 24 hours.
(§6) At the end of the incubation, each probiotic suspension was pelleted by centrifugation at 3000×g for 10 minutes. Supernatant was recovered, added with 4 vol of methanol and stored at −20° C. for 24 hours. Pellet was washed once with saline buffer, centrifuged at 3000×g for 10 minutes, resuspended in 2 ml of methanol, sonicated in ice and stored at −20° C. for 24 hours.
(§7) 4 mg of carotene and 0.4 mg of xanthophyll were dissolved each in 200 μl of chloroform by vortexing. For each liposome preparation 200 mg of lecithin were dissolved in 500 μl of chloroform. Both carotene and xanthophyll chloroform solutions were added, separately, to the chloroform lecithin solution, vortexed, and completely dried with N2 to create a thin layer on the inner wall of a glass Corex. […]
(§8) Quantification of abscisic acid (ABA) was performed on both pellets and supernatants obtained as described above (see Bacterial cell culture). […]

Bacillus coagulans = experiment: Abscisic acid (ABA) production by Bacillus coagulans culture incubated with carotenoid liposomes, ABA ELISA
Procedure: Lyophilized probiotics were grown separately in LB medium in shake-flasks equipped with vented cap at 37° C. for 24 hours. After growth, each probiotic suspension was diluted with LB medium to reach approximately 0.1 O.D. at 600 nm. 3.5 ml of each diluted suspension was added with 500 μl of: i) empty liposomes, […] iii) liposomes containing 0.1 mg xanthophyll, iv) both liposomes containing carotene and xanthophyll, and incubated with shaking at 350 rpm at 37° C. for 24 hours. At the end of the incubation, each probiotic suspension was pelleted by centrifugation at 3000×g for 10 minutes. Supernatant was recovered, added with 4 vol of methanol and stored at −20° C. for 24 hours. Pellet was washed once with saline buffer, centrifuged at 3000×g for 10 minutes, resuspended in 2 ml of methanol, sonicated in ice and stored at −20° C. for 24 hours. 4 mg of carotene and 0.4 mg of xanthophyll were dissolved each in 200 μl of chloroform by vortexing. For each liposome preparation 200 mg of lecithin were dissolved in 500 μl of chloroform. Both carotene and xanthophyll chloroform solutions were added, separately, to the chloroform lecithin solution, vortexed, and completely dried with N2 to create a thin layer on the inner wall of a glass Corex. […] Quantification of abscisic acid (ABA) was performed on both pellets and supernatants obtained as described above (see Bacterial cell culture). […]

Lactobacillus Rhamnosus = experiment: Abscisic acid production by Lactobacillus Rhamnosus culture incubated with liposomes, ABA ELISA
Procedure: as §1, §2, §3, §4, §5, §6, §7, §8

CC1=C(/C=C/C(C)=C/C=C/C(C)=C/C=C/C=C(C)/C=C/C=C(C)/C=C/C2=C(C)CCCC2(C)C)C(C)(C)CCC1 [beta-carotene]
production of abscisic acid, times higher than culture with empty liposomes (FIG. 1B) [1]: about 7.5 times | production of abscisic acid, times higher than culture with empty liposomes (FIG. 2) (Bacillus coagulans): about 5 times | production of abscisic acid, times higher than culture with empty liposomes (FIG. 1A) (Bacillus coagulans; p=0.0093): about 6.6 times | production of abscisic acid, times higher than culture with empty liposomes (FIG. 1C) (Lactobacillus Rhamnosus): about 20 times
